Experimental data taken from article PMC10766610, “DCAF1-based PROTACs with activity against clinically validated targets overcoming intrinsic- and acquired-degrader resistance” (Nature Communications, 2024).

Experiments:
BRD9 = target: T1, BRD9 (Homo sapiens, UniProt Q9H8M2); assay: Immunoblot of BRD9 in HEK293 BRD9-HiBiT/FF/CAS9 cells; type: cell-based; parameters: host or cells: HEK293/BRD9-HiBiT knock-in; clone and BRD9-HiBiT/CAS9/FF clone
T1 sequence (Q9H8M2 1-597): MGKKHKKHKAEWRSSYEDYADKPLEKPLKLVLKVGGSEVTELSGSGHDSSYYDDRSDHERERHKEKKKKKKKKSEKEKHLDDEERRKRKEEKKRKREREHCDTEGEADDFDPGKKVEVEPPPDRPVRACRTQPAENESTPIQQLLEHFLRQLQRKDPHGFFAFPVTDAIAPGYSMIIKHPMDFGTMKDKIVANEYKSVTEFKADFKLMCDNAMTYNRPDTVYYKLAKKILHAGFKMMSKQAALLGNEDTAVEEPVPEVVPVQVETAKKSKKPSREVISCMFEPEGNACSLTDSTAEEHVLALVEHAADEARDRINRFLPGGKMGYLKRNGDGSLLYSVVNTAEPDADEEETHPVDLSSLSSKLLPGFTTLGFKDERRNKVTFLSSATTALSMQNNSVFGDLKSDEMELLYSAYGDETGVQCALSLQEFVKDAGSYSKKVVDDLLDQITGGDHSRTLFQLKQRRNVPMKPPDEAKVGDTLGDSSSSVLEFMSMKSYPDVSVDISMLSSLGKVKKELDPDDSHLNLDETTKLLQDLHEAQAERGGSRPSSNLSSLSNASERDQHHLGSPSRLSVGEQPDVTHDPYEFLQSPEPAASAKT
Procedure: Whole cell lysates for immunoblotting were prepared by pelleting cells at 4 °C (300 g) for 3 min. Cell pellets were then washed 1x with PBS and resuspended in RIPA lysis buffer (VWR, cat # 97063-270) supplemented with protease (Thermo Scientific, cat # A32955) and phosphatase (Thermo Scientific, cat # A32957) inhibitor tablets. Lysates were clarified at 16,000 × g for 15 min at 4 °C prior to quantification by Lowry assay (Bio-Rad cat # 5000113 and cat # 5000114). Whole-cell lysates were loaded into 4–20% Criterion TGX Precast 18 well gels (Bio-Rad, cat # 5671094) and separated by electrophoreses at 120 V for 1 h. The gels were transferred to a nitrocellulose membrane using the Trans-Blot Turbo (Bio-Rad) for 7 min and then blocked for 1 h at room temperature in Odyssey blocking buffer (LICOR Biosciences, cat # 927-50000). Membranes were probed with the appropriate primary antibodies (diluted 1:1000) overnight at 4 °C in 20% Odyssey blocking buffer in 1x TBST. Membranes were washed three times with 1x TBST (5 min per wash), and then incubated with IRDye goat anti-mouse (LICOR, cat # 926-32210) or goat anti-rabbit (LICOR, cat # 926-32211) secondary antibody diluted 1:10,000 in 20% Odyssey blocking buffer for 1 h at room temperature. After three 5-min washes with 1x TBST, the immunoblots were visualized using the ODYSSEY Infrared Imaging System (LICOR). Alternatively, SDS-PAGE resolved proteins were transferred to a PVDF membrane using a wet blotting system (Invitrogen). Membranes were blocked in 5% Milk-PBS-Tween 20 for 1 h and incubated with primary antibody over night at 4 °C. Secondary antibodies (secondary antibody: anti-rabbit, goat pAb to Rb-IgG (Abcam, #7090); secondary antibody: anti-mouse, sheep IgG HRP-linked (GE healthcare, #NA931V)) were incubated for 1 h at room temperature (RT) before blots were developed on film using the detection kit SuperSignal West Femto Maximum Sensitivity Substrate (Thermo Fisher, #34096).

[1] = target: T2, DCAF1(WDR) with additional 10 µM BTK (Homo sapiens, UniProt Q06187+Q9Y4B6, E1398S); assay: DCAF1 TR-FRET, cooperative format with 10 µM BTK; type: binding; conditions: cooperative format (+ BTK in Fig. 6b); ± SD (n); read-out: IC50 Alpha DCAF1 TR-FRET
T2 construct: 2 nM human DCAF1(1073-1399)_E1398S-Avi-His; human BTK (G389-S659); His6 (C); His (PreScission site) (N); made in house; host or cells: Sf9 insect cells (both chains)
T2 sequence (Q9Y4B6 1073-1399 E1398S): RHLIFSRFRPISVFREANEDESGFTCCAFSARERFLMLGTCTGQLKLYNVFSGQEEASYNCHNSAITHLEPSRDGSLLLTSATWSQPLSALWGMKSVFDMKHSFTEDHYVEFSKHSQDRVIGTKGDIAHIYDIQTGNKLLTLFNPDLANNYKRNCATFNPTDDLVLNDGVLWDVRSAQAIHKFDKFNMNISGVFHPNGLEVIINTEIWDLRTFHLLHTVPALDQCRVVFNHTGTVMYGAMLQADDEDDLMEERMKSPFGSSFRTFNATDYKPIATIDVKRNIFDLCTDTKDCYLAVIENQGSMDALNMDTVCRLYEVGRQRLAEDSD
T2 sequence (Q06187 389-659): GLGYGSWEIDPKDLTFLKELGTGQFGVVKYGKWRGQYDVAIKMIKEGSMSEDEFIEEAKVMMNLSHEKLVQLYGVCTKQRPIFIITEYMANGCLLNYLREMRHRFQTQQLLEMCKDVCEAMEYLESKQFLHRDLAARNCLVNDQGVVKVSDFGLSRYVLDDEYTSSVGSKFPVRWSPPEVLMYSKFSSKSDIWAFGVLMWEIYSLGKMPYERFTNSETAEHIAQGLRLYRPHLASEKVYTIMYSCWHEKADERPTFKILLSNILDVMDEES
Procedure: Competition assay conditions consist of 20 µL total volume in white 384-well plates (Greiner), in 30 mM phosphate buffer pH 7.4 containing 140 mM NaCl, 0.01% Tween20, 1 mM TCEP and 1% final DMSO. Tested compounds at 14 different concentrations were pre-incubated at 22 °C for 30 min with a large excess of 10 µM human BTK (G389-S659) or 10 µM human BRD9-BD(130-250) in the cooperative assay or with buffer in standard binary assay. […] Samples were then incubated at 22 °C for 30 min before reading using a Tecan infinite M-1000 or PheraStar FSX (excitation 340 nm, emission 490 and 520 nm). DCAF1 protein was omitted in the negative control. IC50 fitting was carried out using an in-house developed software (Novartis Helios software application, unpublished, a publicly available alternative would be e.g., Graphpad Prism) using the methods described by Fomenko et al.[93] (regression algorithms for nonlinear dose-response curve fitting). Following normalization of activity values for the wells to % inhibition (% inhibition = [(high control-sample)/(high control-low control)] × 100). Data analysis could also be carried out using GraphPad Prism without prior normalization. The reported IC50 values are the average of at least two independent experiments.

Question: `CC(=O)N1CCN(c2ccc3c(NCCN)nc(C4(c5ccc(Cl)cc5)CCCCC4)nc3c2)CC1` [compound 13] was tested. Which “BRD9 protein reduction by individual binders” value (BRD9; 1000 nM, 6 h) did it give?
Answer: No BRD9 protein reduction

Question: Which IC50 [1] does the source give for `Cc1c(NC(=O)N2CC(O)(CC(C)(C)C)C2)cc(F)cc1-c1ncnc2[nH]c(-c3cnn(CC(=O)N4CCC5(CC4)CN(CCNC(=O)CCCC(=O)N4CCN(c6ccc7c(NCCN)nc(C8(c9ccc(Cl)cc9)CCCCC8)nc7c6)CC4)CCO5)c3)cc12` [DBt-10] here?
Answer: 82 ± 39 nM

Question: `Cc1c(NC(=O)c2ccc(C(C)(C)O)cc2F)cc(F)cc1-c1ncnc2[nH]c(-c3ccc(CNCCOCCOCCOCCOCCOCCOCCOCCOCCOCCOCCOCCOCCC(=O)N4CCN(c5ccc6c(NCCN)nc(C7(c8ccc(Cl)cc8)CCCCC7)nc6c5)CC4)cc3)cc12` [DBt-5] was tested. Which IC50 [1] did it give?
Answer: 282 ± 84 nM

Question: Which results are given for `COc1cc(-c2cn(C)c(=O)c3cnccc23)c(OC)cc1CN1CCC(OCCCCCC(=O)N2CCN(c3ccc4c(NCCN)nc(C5(c6ccc(Cl)cc6)CCCCC5)nc4c3)CC2)CC1` [DBr-1]?
Answer: BRD9 protein loss (BRD9; 1000 nM, 6 h, HEK293 cells): about 90%; BRD9 degradation (BRD9; 1000 nM, after 30 min): 90%; DC50 (BRD9; 6 h, HEK293 cells, immunoblot, read-out: DC50 BRD9 estimated from dose-response curve): ~500 nM
